Results published in patent publication US12391737B2, “Soluble NPY2 receptor agonists” (Boehringer Ingelheim International GmbH, priority 2020, dated 2025).
*1 amine or outer side, *2 acyl side, *3 side chain or, on linkers, in order; H or OH if unused. Where a SMILES comes first, the peptide text is derived from it. Side-chain parts run from the residue outwards. The star is where a group is joined. C18 diacid = O=C(O)CCCCCCCCCCCCCCCCC(=O)*; γGlu = O=C(O)[C@H](CCC(=O)[*:2])N[*:1]; Isovaleryl = CC(C)CC(=O)*; Ahx = NCCCCCC(=O)O

Tests used:
[1] = biological target: T1, Human Neuropeptide Y2 Receptor (Homo sapiens, UniProt P49146); test: Radioligand binding competition assay (RLB); conditions: Table 3, 125I-PYY(1-36) competition; read-out: Ki
T1 construct: purchased CHEMICON HTS066M
T1 sequence (P49146 1-381): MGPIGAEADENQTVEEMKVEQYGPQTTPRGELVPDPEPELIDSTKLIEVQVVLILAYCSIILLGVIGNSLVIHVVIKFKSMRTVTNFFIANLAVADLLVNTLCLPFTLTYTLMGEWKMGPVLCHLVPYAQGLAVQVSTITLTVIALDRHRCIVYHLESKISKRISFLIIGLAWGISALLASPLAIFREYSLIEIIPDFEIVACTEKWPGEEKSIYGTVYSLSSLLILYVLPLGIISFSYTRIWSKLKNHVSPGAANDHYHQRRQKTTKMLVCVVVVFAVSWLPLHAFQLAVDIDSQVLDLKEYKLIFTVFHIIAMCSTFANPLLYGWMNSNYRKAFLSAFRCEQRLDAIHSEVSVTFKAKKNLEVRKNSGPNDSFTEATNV
Method in brief: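 Peptides were serially diluted from 1 mM DMSO stocks and competed for radioligand binding to receptor membranes (0.5 μg/well) over 2 h at room temperature, pH 7.4 HEPES buffer. Bound radioactivity on filters was counted by scintillation, and IC50 was derived by nonlinear regression.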

Solubility determination = conditions: for Sol6: pH 6; for Sol7: pH 7
Method in brief: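 First, TFA-salt peptide was added to 0.1 M sodium diphosphate (pH 6.4 or 7.0) to 10 mg/ml and shaken 2 h at room temperature. Next, insoluble material was filtered off. Finally, filtrate and control, each 1 mg/ml in 50% acetonitrile, were compared by reversed-phase chromatography.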

Ki [1]	Sol6 (Solubility determination)	Sol7 (Solubility determination)	SMILES
6.04 nM	>10.0 mg/mL	10.0 mg/mL	CC(C)CC(=O)N[C@@H](C)C(=O)N1CCC[C@H]1C(=O)N[C@@H](CCC(=O)O)C(=O)N[C@@H](CCCCNC(=O)CCCCCNC(=O)CC[C@H](NC(=O)CCCCCCCCCCCCCCCCC(=O)O)C(=O)O)C(=O)N1CCC[C@H]1C(=O)N[C@@H](CCC(=O)O)C(=O)N[C@@H](CCC(=O)O)C(=O)N[C@@H](CC(=O)O)C(=O)N[C@@H](C)C(=O)N[C@@H](CO)C(=O)N1CCC[C@H]1C(=O)N[C@@H](CCC(=O)O)C(=O)N[C@@H](CCC(=O)O)C(=O)N[C@@H](CC(C)C)C(=O)N[C@@H](CCC(N)=O)C(=O)N[C@@H](CCCNC(=N)N)C(=O)N[C@@H](Cc1ccc(O)cc1)C(=O)N[C@@H](Cc1ccc(O)cc1)C(=O)N[C@H](C(=O)N[C@@H](CO)C(=O)N[C@@H](CC(C)C)C(=O)N[C@@H](CCCNC(=N)N)C(=O)N[C@@H](Cc1c[nH]cn1)C(=O)N[C@@H](Cc1ccc(O)cc1)C(=O)N[C@@H](Cc1ccc(O)cc1)C(=O)N[C@@H](CCC(N)=O)C(=O)N[C@@H](Cc1c[nH]c2ccccc12)C(=O)N[C@@H](CC(C)C)C(=O)N[C@H](C(=O)N[C@@H](CCCNC(=N)N)C(=O)N[C@@H](CCC(N)=O)C(=O)N[C@@H](CCCNC(=N)N)C(=O)N[C@@H](Cc1ccc(O)cc1)C(N)=O)[C@@H](C)O)C(C)C [Compound 60, N{alpha-4}-(3-methylbutanoyl)-N{epsilon-7}-(6-[(4S)-4-carboxy-4-(17-carboxyheptadecanamido)butanamido]hexanoyl)-[4A,7K,9E,18Q,22V,28Y,29Q,30W,31L]-hPYY(4-36)]
1.33 nM	9.5 mg/mL	9.3 mg/mL	CC[C@H](C)[C@H](NC(=O)[C@H](CCC(=O)O)NC(=O)[C@H](CCC(=O)O)NC(=O)[C@@H]1CCCN1C(=O)[C@H](CCC(=O)O)NC(=O)[C@H](C)NC(=O)[C@H](CC(=O)O)NC(=O)[C@H](C)NC(=O)[C@H](CCC(=O)O)NC(=O)[C@@H]1CCCN1C(=O)[C@H](CCCCNC(=O)CCCCCNC(=O)CC[C@H](NC(=O)CCCCCCCCCCCCCCCCC(=O)O)C(=O)O)NC(=O)[C@H](C)NC(=O)[C@@H]1CCCN1C(=O)[C@H](C)NC(=O)CC(C)C)C(=O)N[C@@H](CCC(N)=O)C(=O)N[C@@H](CCCNC(=N)N)C(=O)N[C@@H](Cc1ccc(O)cc1)C(=O)N[C@@H](Cc1ccc(O)cc1)C(=O)N[C@H](C(=O)N[C@@H](C)C(=O)N[C@@H](CC(C)C)C(=O)N[C@@H](CCCNC(=N)N)C(=O)N[C@@H](Cc1c[nH]cn1)C(=O)N[C@@H](Cc1ccc(O)cc1)C(=O)N[C@@H](Cc1ccc(O)cc1)C(=O)N[C@@H](CC(N)=O)C(=O)N[C@@H](Cc1c[nH]c2ccccc12)C(=O)N[C@@H](CC(C)C)C(=O)N[C@H](C(=O)N[C@@H](CCCNC(=N)N)C(=O)N[C@@H](CCC(N)=O)C(=O)N[C@@H](CCCNC(=N)N)C(=O)N[C@@H](Cc1ccc(O)cc1)C(N)=O)[C@@H](C)O)C(C)C [Compound 181, N{alpha-4}-(3-methylbutanoyl)-N{epsilon-7}-(6-[(4S)-4-carboxy-4-(17-carboxyheptadecanamido)butanamido]hexanoyl)-[4A,6A,7K,9E,10A,13E,17I,18Q,22V,23A,28Y,30W,31L]-hPYY(4-36)]
9.07 nM	9.9 mg/mL	10.0 mg/mL	CC(C)CC(=O)N[C@@H](C)C(=O)N1CCC[C@H]1C(=O)N[C@@H](CCC(=O)O)C(=O)N[C@@H](CCCCNC(=O)CCCCCNC(=O)CC[C@H](NC(=O)CCCCCCCCCCCCCCCCC(=O)O)C(=O)O)C(=O)N1CCC[C@H]1C(=O)N[C@@H](CCC(=O)O)C(=O)N[C@@H](CCC(=O)O)C(=O)N[C@@H](CC(=O)O)C(=O)N[C@@H](C)C(=O)N[C@@H](CCC(=O)O)C(=O)N1CCC[C@H]1C(=O)N[C@@H](CCC(=O)O)C(=O)N[C@@H](CCC(=O)O)C(=O)N[C@@H](CC(C)C)C(=O)N[C@@H](CCC(N)=O)C(=O)N[C@@H](CCCNC(=N)N)C(=O)N[C@@H](Cc1ccc(O)cc1)C(=O)N[C@@H](Cc1ccc(O)cc1)C(=O)N[C@H](C(=O)N[C@@H](CO)C(=O)N[C@@H](CC(C)C)C(=O)N[C@@H](CCCNC(=N)N)C(=O)N[C@@H](Cc1c[nH]cn1)C(=O)N[C@@H](Cc1ccc(O)cc1)C(=O)N[C@@H](Cc1ccc(O)cc1)C(=O)N[C@@H](CCC(N)=O)C(=O)N[C@@H](Cc1c[nH]c2ccccc12)C(=O)N[C@@H](CC(C)C)C(=O)N[C@H](C(=O)N[C@@H](CCCNC(=N)N)C(=O)N[C@@H](CCC(N)=O)C(=O)N[C@@H](CCCNC(=N)N)C(=O)N[C@@H](Cc1ccc(O)cc1)C(N)=O)[C@@H](C)O)C(C)C [Compound 68, N{alpha-4}-(3-methylbutanoyl)-N{epsilon-7}-(6-[(4S)-4-carboxy-4-(17-carboxyheptadecanamido)butanamido]hexanoyl)-[4A,7K,9E,13E,18Q,22V,28Y,29Q,30W,31L]-hPYY(4-36)]
3.6 nM	7.3 mg/mL	8.8 mg/mL	CC(C)CC(=O)N[C@@H](C)C(=O)N1CCC[C@H]1C(=O)N[C@@H](CCC(=O)O)C(=O)N[C@@H](CCCCNC(=O)CCCCCNC(=O)CC[C@H](NC(=O)CCCCCCCCCCCCCCCCC(=O)O)C(=O)O)C(=O)N1CCC[C@H]1C(=O)N[C@@H](CCC(=O)O)C(=O)N[C@@H](CCC(=O)O)C(=O)N[C@@H](CCC(=O)O)C(=O)N[C@@H](C)C(=O)N[C@@H](CO)C(=O)N1CCC[C@H]1C(=O)N[C@@H](C)C(=O)N[C@@H](CCC(=O)O)C(=O)N[C@@H](CC(C)C)C(=O)N[C@@H](CCC(N)=O)C(=O)N[C@@H](CCCNC(=N)N)C(=O)N[C@@H](Cc1ccc(O)cc1)C(=O)N[C@@H](Cc1ccc(O)cc1)C(=O)N[C@H](C(=O)N[C@@H](CO)C(=O)N[C@@H](CC(C)C)C(=O)N[C@@H](CCCNC(=N)N)C(=O)N[C@@H](Cc1c[nH]cn1)C(=O)N[C@@H](Cc1ccc(O)cc1)C(=O)N[C@@H](Cc1ccc(O)cc1)C(=O)N[C@@H](CC(N)=O)C(=O)N[C@@H](Cc1c[nH]c2ccccc12)C(=O)N[C@@H](CC(C)C)C(=O)N[C@H](C(=O)N[C@@H](CCCNC(=N)N)C(=O)N[C@@H](CCC(N)=O)C(=O)N[C@@H](CCCNC(=N)N)C(=O)N[C@@H](Cc1ccc(O)cc1)C(N)=O)[C@@H](C)O)C(C)C [Compound 139, N{alpha-4}-(3-methylbutanoyl)-N{epsilon-7}-(6-[(4S)-4-carboxy-4-(17-carboxyheptadecanamido)butanamido]hexanoyl)-[4A,7K,9E,11E,15A,18Q,22V,28Y,30W,31L]-hPYY(4-36)] (Isovaleryl-APEK([Ahx-γGlu-C18 diacid])PEEEASPAELQRYYVSLRHYYNWLTRQRY-NH2)
1.53 nM	10.0 mg/mL	10.0 mg/mL	CC(C)CC(=O)N[C@@H](C)C(=O)N1CCC[C@H]1C(=O)N[C@@H](CCC(=O)O)C(=O)N[C@@H](CCCCNC(=O)CCCCCNC(=O)CC[C@H](NC(=O)CCCCCCCCCCCCCCCCC(=O)O)C(=O)O)C(=O)N1CCC[C@H]1C(=O)N[C@@H](CCC(=O)O)C(=O)N[C@@H](C)C(=O)N[C@@H](CC(=O)O)C(=O)N[C@@H](C)C(=O)N[C@@H](CO)C(=O)N1CCC[C@H]1C(=O)N[C@@H](CCC(=O)O)C(=O)N[C@@H](CCC(=O)O)C(=O)N[C@H](C(=O)N[C@@H](CCC(N)=O)C(=O)N[C@@H](CCCNC(=N)N)C(=O)N[C@@H](Cc1ccc(O)cc1)C(=O)N[C@@H](Cc1ccc(O)cc1)C(=O)N[C@H](C(=O)N[C@@H](CO)C(=O)N[C@@H](CC(C)C)C(=O)N[C@@H](CCCNC(=N)N)C(=O)N[C@@H](Cc1c[nH]cn1)C(=O)N[C@@H](Cc1ccc(O)cc1)C(=O)N[C@@H](Cc1ccc(O)cc1)C(=O)N[C@@H](CC(N)=O)C(=O)N[C@@H](Cc1c[nH]c2ccccc12)C(=O)N[C@@H](CC(C)C)C(=O)N[C@H](C(=O)N[C@@H](CCCNC(=N)N)C(=O)N[C@@H](CCC(N)=O)C(=O)N[C@@H](CCCNC(=N)N)C(=O)N[C@@H](Cc1ccc(O)cc1)C(N)=O)[C@@H](C)O)C(C)C)[C@@H](C)O [Compound 13, N{alpha-4}-(3-methylbutanoyl)-N{epsilon-7}-(6-[(4S)-4-carboxy-4-(17-carboxyheptadecanamido)butanamido]hexanoyl)[4A,7K,9E,10A,17T,18Q,22V,28Y,30W,31L]-hPYY(4-36)]
2.75 nM	8.7 mg/mL	9.3 mg/mL	CC(C)CC(=O)N[C@@H](C)C(=O)N1CCC[C@H]1C(=O)N[C@@H](CCC(=O)O)C(=O)N[C@@H](CCCCNC(=O)CCCCCNC(=O)CC[C@H](NC(=O)CCCCCCCCCCCCCCCCC(=O)O)C(=O)O)C(=O)N1CCC[C@H]1C(=O)N[C@@H](CCC(=O)O)C(=O)N[C@@H](C)C(=O)N[C@@H](CC(=O)O)C(=O)N[C@@H](C)C(=O)N[C@H](C(=O)N1CCC[C@H]1C(=O)N[C@@H](CCC(=O)O)C(=O)N[C@@H](CCC(=O)O)C(=O)N[C@@H](CC(C)C)C(=O)N[C@@H](CCC(N)=O)C(=O)N[C@@H](CCCNC(=N)N)C(=O)N[C@@H](Cc1ccc(O)cc1)C(=O)N[C@@H](Cc1ccc(O)cc1)C(=O)N[C@H](C(=O)N[C@@H](CO)C(=O)N[C@@H](CC(C)C)C(=O)N[C@@H](CCCNC(=N)N)C(=O)N[C@@H](Cc1c[nH]cn1)C(=O)N[C@@H](Cc1ccc(O)cc1)C(=O)N[C@@H](Cc1ccc(O)cc1)C(=O)N[C@@H](CC(N)=O)C(=O)N[C@@H](Cc1c[nH]c2ccccc12)C(=O)N[C@@H](CC(C)C)C(=O)N[C@H](C(=O)N[C@@H](CCCNC(=N)N)C(=O)N[C@@H](CCC(N)=O)C(=O)N[C@@H](CCCNC(=N)N)C(=O)N[C@@H](Cc1ccc(O)cc1)C(N)=O)[C@@H](C)O)C(C)C)[C@@H](C)O [Compound 132, N{alpha-4}-(3-methylbutanoyl)-N{epsilon-7}-(6-[(4S)-4-carboxy-4-(17-carboxyheptadecanamido)butanamido]hexanoyl)-[4A,7K,9E,10A,13T,18Q,22V,28Y,30W,31L]-hPYY(4-36)]
